Data from ChEMBL document CHEMBL1201862, “PubChem BioAssay data set” (2004).
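1) Cells in 96-well plates. 2) Compound, 48 h, 5 concentrations. 3) Linear interpolation between surrounding doses. 4) Unreached endpoint = highest concentration. Here, GI50 denotes the concentration required for 50% inhibition of growth.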 Active and inactive are the calls of the source. No stated cut-off is given here; in the data, active = GI50 up to about 1.1 µM and inactive = higher.

Legend:
Assay in all cases: NCI tumour cell line growth inhibition, 48 h
UACC-62 = test system: UACC-62
PC-3 = test system: PC-3
OVCAR-8 = test system: OVCAR-8
EKVX = test system: EKVX
A549 = test system: A549
SK-MEL-28 = test system: SK-MEL-28
COLO 205 = test system: COLO 205
M14 = test system: M14
SK-MEL-5 = test system: SK-MEL-5
OVCAR-3 = test system: OVCAR-3
SK-MEL-2 = test system: SK-MEL-2
SK-OV-3 = test system: SK-OV-3
SF-539 = test system: SF-539
HT-29 = test system: HT-29
UO-31 = test system: UO-31
KM12 = test system: KM12
DU-145 = test system: DU-145
MDA-MB-231 = test system: MDA-MB-231
CAKI-1 = test system: CAKI-1
U-251 = test system: U-251
Hs-578T = test system: Hs-578T
SNB-19 = test system: SNB-19
HOP-62 = test system: HOP-62
MDA-MB-435 = test system: MDA-MB-435
SW-620 = test system: SW-620
HCT-116 = test system: HCT-116
HCC 2998 = test system: HCC 2998
NCI-H226 = test system: NCI-H226
LOX IMVI = test system: LOX IMVI
NCI/ADR-RES = test system: NCI/ADR-RES
ACHN = test system: ACHN
NCI-H23 = test system: NCI-H23
SF-295 = test system: SF-295
NCI-H460 = test system: NCI-H460
RPMI-8226 = test system: RPMI-8226
HCT-15 = test system: HCT-15
BT-549 = test system: BT-549
IGROV-1 = test system: IGROV-1
HOP-92 = test system: HOP-92
TK-10 = test system: TK-10
MCF7 = test system: MCF7
UACC-257 = test system: UACC-257
786-0 = test system: 786-0
NCI-H522 = test system: NCI-H522
SNB-75 = test system: SNB-75
OVCAR-5 = test system: OVCAR-5
SF-268 = test system: SF-268
T47D = test system: T47D
Malme-3M = test system: Malme-3M
K562 = test system: K562
SN12C = test system: SN12C
MDA-N = test system: MDA-N
OVCAR-4 = test system: OVCAR-4
A498 = test system: A498
RXF 393 = test system: RXF 393
CCRF-CEM = test system: CCRF-CEM
HL-60 = test system: HL-60
MOLT-4 = test system: MOLT-4

**Q.** `CN(C)C(=S)N/N=C(\C(=N/NC(=S)N(C)C)c1ccccn1)c1ccccn1` was tested. Which GI50 (UACC-62) did it give?
**A.** 6.3 µM (inactive)

**Q.** And the GI50 (PC-3)?
**A.** 4.26 µM (inactive)

**Q.** And the GI50 (OVCAR-8)?
**A.** 7.14 µM (inactive)

**Q.** What about the GI50 (EKVX) of the same compound?
**A.** 12 µM (inactive)

**Q.** And the GI50 (A549)?
**A.** 6.55 µM (inactive)

**Q.** What about the GI50 (SK-MEL-28) of the same compound?
**A.** 16.4 µM (inactive)

**Q.** What about the GI50 (COLO 205) of the same compound?
**A.** 2.17 µM (inactive)

**Q.** What about the GI50 (M14) of the same compound?
**A.** 11.4 µM (inactive)

**Q.** What about the GI50 (SK-MEL-5) of the same compound?
**A.** 9.02 µM (inactive)

**Q.** What about the GI50 (OVCAR-3) of the same compound?
**A.** 3.85 µM (inactive)

**Q.** What about the GI50 (SK-MEL-2) of the same compound?
**A.** 10.7 µM (inactive)

**Q.** What about the GI50 (SK-OV-3) of the same compound?
**A.** 14.4 µM (inactive)

**Q.** What about the GI50 (SF-539) of the same compound?
**A.** 25.5 µM (inactive)

**Q.** And the GI50 (HT-29)?
**A.** 3.22 µM (inactive)

**Q.** What about the GI50 (UO-31) of the same compound?
**A.** 6.7 µM (inactive)

**Q.** And the GI50 (KM12)?
**A.** 4.82 µM (inactive)

**Q.** What about the GI50 (DU-145) of the same compound?
**A.** 4.21 µM (inactive)

**Q.** And the GI50 (MDA-MB-231)?
**A.** 14.7 µM (inactive)

**Q.** What about the GI50 (CAKI-1) of the same compound?
**A.** 14.8 µM (inactive)

**Q.** And the GI50 (U-251)?
**A.** 3.99 µM (inactive)

**Q.** What about the GI50 (Hs-578T) of the same compound?
**A.** 1.01 µM (active)

**Q.** What about the GI50 (SNB-19) of the same compound?
**A.** 12.8 µM (inactive)

**Q.** What about the GI50 (HOP-62) of the same compound?
**A.** 10.9 µM (inactive)

**Q.** What about the GI50 (MDA-MB-435) of the same compound?
**A.** 10.1 µM (inactive)

**Q.** What about the GI50 (SW-620) of the same compound?
**A.** 6.24 µM (inactive)

**Q.** What about the GI50 (HCT-116) of the same compound?
**A.** 5.78 µM (inactive)

**Q.** And the GI50 (HCC 2998)?
**A.** 7.55 µM (inactive)

**Q.** What about the GI50 (NCI-H226) of the same compound?
**A.** 12.6 µM (inactive)

**Q.** And the GI50 (LOX IMVI)?
**A.** 11.8 µM (inactive)

**Q.** And the GI50 (NCI/ADR-RES)?
**A.** 20.7 µM (inactive)

**Q.** And the GI50 (ACHN)?
**A.** 6.61 µM (inactive)

**Q.** What about the GI50 (NCI-H23) of the same compound?
**A.** 12.3 µM (inactive)

**Q.** And the GI50 (SF-295)?
**A.** 11.6 µM (inactive)

**Q.** What about the GI50 (NCI-H460) of the same compound?
**A.** 2.56 µM (inactive)

**Q.** And the GI50 (RPMI-8226)?
**A.** 5.3 µM (inactive)

**Q.** And the GI50 (HCT-15)?
**A.** 6.81 µM

**Q.** And the GI50 (BT-549)?
**A.** 14.6 µM (inactive)

**Q.** What about the GI50 (IGROV-1) of the same compound?
**A.** 8.41 µM (inactive)

**Q.** And the GI50 (HOP-92)?
**A.** 9.35 µM (inactive)

**Q.** What about the GI50 (TK-10) of the same compound?
**A.** 8.11 µM (inactive)

**Q.** And the GI50 (MCF7)?
**A.** 1.66 µM (inactive)

**Q.** And the GI50 (UACC-257)?
**A.** 10.7 µM (inactive)

**Q.** And the GI50 (786-0)?
**A.** 10.4 µM (inactive)

**Q.** What about the GI50 (NCI-H522) of the same compound?
**A.** 2.65 µM (inactive)

**Q.** What about the GI50 (SNB-75) of the same compound?
**A.** 12.2 µM (inactive)

**Q.** And the GI50 (OVCAR-5)?
**A.** 14 µM (inactive)

**Q.** And the GI50 (SF-268)?
**A.** 6.14 µM (inactive)

**Q.** What about the GI50 (T47D) of the same compound?
**A.** 3.21 µM (inactive)

**Q.** What about the GI50 (Malme-3M) of the same compound?
**A.** 12.9 µM (inactive)

**Q.** And the GI50 (K562)?
**A.** 8.28 µM (inactive)

**Q.** And the GI50 (SN12C)?
**A.** 5.41 µM (inactive)

**Q.** What about the GI50 (MDA-N) of the same compound?
**A.** 11.2 µM (inactive)

**Q.** And the GI50 (OVCAR-4)?
**A.** 7.28 µM (inactive)

**Q.** And the GI50 (A498)?
**A.** 14.8 µM (inactive)

**Q.** And the GI50 (RXF 393)?
**A.** 5.21 µM (inactive)

**Q.** Which results are given for `CCOC(=O)c1cc2c3c(c(C(C)=O)c(OC)c2[nH]1)N(C(=O)CC)CC3`?
**A.** GI50 (UACC-62): 16.3 µM (inactive); GI50 (PC-3): 23.3 µM (inactive); GI50 (OVCAR-8): 19.8 µM (inactive); GI50 (EKVX): 11.4 µM (inactive); GI50 (A549): 14 µM (inactive); GI50 (SK-MEL-28): 15.3 µM (inactive); GI50 (COLO 205): 18.2 µM (inactive); GI50 (M14): 16.8 µM (inactive); GI50 (SK-MEL-5): 10.9 µM (inactive); GI50 (CCRF-CEM): 13.7 µM (inactive); GI50 (HL-60): 6.4 µM (inactive); GI50 (OVCAR-3): 14.5 µM (inactive); GI50 (SK-MEL-2): 22.3 µM (inactive); GI50 (SK-OV-3): 50.1 µM (inactive); GI50 (SF-539): 19.8 µM (inactive); GI50 (HT-29): 16.6 µM (inactive); GI50 (UO-31): 12.7 µM (inactive); GI50 (KM12): 10.7 µM (inactive); GI50 (DU-145): 15.6 µM (inactive); GI50 (MDA-MB-231): 4.25 µM (inactive); GI50 (CAKI-1): 14.9 µM (inactive); GI50 (U-251): 19.2 µM (inactive); GI50 (Hs-578T): 19.4 µM (inactive); GI50 (SNB-19): 12.8 µM (inactive); GI50 (HOP-62): 25.1 µM (inactive); GI50 (MDA-MB-435): 15.6 µM (inactive); GI50 (SW-620): 24.9 µM (inactive); GI50 (HCT-116): 14.4 µM (inactive); GI50 (HCC 2998): 23.4 µM (inactive); GI50 (NCI-H226): 10.2 µM (inactive); GI50 (LOX IMVI): 14.6 µM (inactive); GI50 (NCI/ADR-RES): 13.4 µM (inactive); GI50 (NCI-H23): 11.9 µM (inactive); GI50 (SF-295): 19.3 µM (inactive); GI50 (NCI-H460): 16.7 µM (inactive); GI50 (RPMI-8226): 5.13 µM (inactive); GI50 (HCT-15): 16.5 µM; GI50 (BT-549): 17.3 µM (inactive); GI50 (IGROV-1): 13.6 µM (inactive); GI50 (HOP-92): 13.5 µM (inactive); GI50 (MCF7): 14.5 µM (inactive); GI50 (UACC-257): 19.4 µM (inactive); GI50 (MOLT-4): 4.05 µM (inactive); GI50 (786-0): 17.5 µM (inactive); GI50 (SNB-75): 20.7 µM (inactive); GI50 (OVCAR-5): 27.7 µM (inactive); GI50 (SF-268): 16.4 µM (inactive); GI50 (T47D): 4.93 µM (inactive); GI50 (Malme-3M): 12.6 µM (inactive); GI50 (K562): 14.1 µM (inactive); GI50 (SN12C): 20.9 µM (inactive); GI50 (MDA-N): 16.8 µM (inactive); GI50 (OVCAR-4): 21.5 µM (inactive); GI50 (A498): 36.9 µM (inactive); GI50 (RXF 393): 19.6 µM (inactive)
